Measured values from patent US20240209028A1, “CNP COMPOUNDS” (priority 2022, published 2024).
Starred links: 1 amine or outer side, 2 acyl side, 3 side chain; linkers in the order of their positions; H or OH if unused. Positions of bridges follow the written chain, without caps; N, C: chain ends. Residues, ends and D or L forms follow the SMILES beside them. *: point of attachment. C18 diacid = O=C(O)CCCCCCCCCCCCCCCCC(=O)*; γGlu = O=C(O)[C@H](CCC(=O)[*:2])N[*:1]; AEEA = NCCOCCOCC(=O)O

Assay: Thioflavin T (ThT) assay: lagtime and peptide recovery
Type: physicochemical
Conditions: assay terminated after 45 hours; for LagTime (h) at pH 6.5: ThT assay, pH 6.5, 37° C.
Excerpt: The ThT assay was used to evaluate physical stability of the CNP compounds and their suitability for liquid formulation. Low physical stability of peptides may lead to amyloid fibril formation, which is observed as well-ordered, thread-like macromolecular structures in the sample eventually resulting in gel formation. This has traditionally been tested by visual inspection of the sample. However, that kind of measurement is very subjective and depending on the observer. Therefore, the application of a small molecule indicator probe is much more advantageous. Thioflavin T (ThT) is such a probe and has a distinct fluorescence signature when binding to fibrils [Naiki et al. (1989) Anal. Biochem. 177, 244-249; LeVine (1999) Methods. Enzymol. […], 274-284].
Procedure: Thioflavin T was added to the supernatant samples from Example 5 (pH 4.0 and 6.5) using an aqueous ThT stock solution to a final concentration of about 1 μM in the samples. Sample aliquots of 150 μL were placed in a 96 well microtiter plate (Packard OptiPlate™-96, white polystyrene). Usually, two to three replicas of each sample were applied to the plate. The plate was sealed and placed in a fluorescence plate reader (Fluoroskan Ascent FL) and incubated at 37° C. with orbital shaking (960 rpm; 1 mm amplitude). Fluorescence measurements were performed every 20 minutes using excitation through a 444 nm filter and measurement of emission through a 485 nm filter. Between each measurement, the plate was shaken and heated as described above and the assay was terminated after 45 hours. Fluorescence measurements for each microtiter plate well were plotted against time and the lag-time (time until an increase in ThT fluorescence was observed) was estimated.
To assess loss of dissolved peptide following 45h incubation, peptide recovery was measured as the ratio between total peak area after incubation vs. before incubation using the RP-UPLC method described below.
Measurement of LagTime and Peptide recovery % using RP-UPLC: RP-UPLC was conducted using an Acquity UPLC BEH C18 1.7 μm (2.1×30 mm) Waters column (Eluent A: 0.1% v/v % TFA in water; Eluent B: 0.1% v/v TFA in acetonitrile/water 4:1) with gradient elution (0 min: 95% A; 2 min: 20% A; 2.3 min: 20% A; 2.4 min: 95% A; 9 min: 95% A) in a flow rate of 0.9 mL/min and a column temperature of 30° C. UV-detection at 215 nm was used to assess the total peptide area.
Samples at pH 4.0 were prepared as described in Example 5 and subjected to the ThT assay as described above.
Samples at pH 6.5 were prepared as described in Example 5 and subjected to the ThT assay as described above.

Structure (SMILES) | LagTime (h) at pH 6.5 [h] | LagTime (h) at pH 4.0 (ThT, 37° C., shaking) [h]
CC[C@H](C)[C@@H]1NC(=O)[C@H](CCCNC(=N)N)NC(=O)[C@H](CC(=O)O)NC(=O)[C@H](CC(C)C)NC(=O)[C@@H]2CCCN2C(=O)[C@H](CC(C)C)NC(=O)CNC(=O)[C@H](Cc2ccccc2)NC(=O)[C@@H](NC(=O)CNC(=O)[C@H](CCC(N)=O)NC(=O)[C@H](CO)NC(=O)[C@H](CC(C)C)NC(=O)CNC(=O)[C@H](CCCCN)NC(=O)[C@H](CCCCN)NC(=O)[C@H](CCC(N)=O)NC(=O)[C@H](C)NC(=O)CNC(=O)[C@H](CCCCN)NC(=O)[C@H](Cc2ccc(O)cc2)NC(=O)[C@H](CCCCN)NC(=O)[C@H](Cc2c[nH]cn2)NC(=O)[C@H](C)NC(=O)[C@H](CCC(N)=O)NC(=O)[C@@H]2CCCN2C(=O)[C@H](Cc2c[nH]cn2)NC(=O)[C@H](CCC(=O)O)NC(=O)[C@H](CCC(N)=O)NC(=O)COCCOCCNC(=O)COCCOCCNC(=O)CC[C@H](NC(=O)CC[C@H](NC(=O)CC[C@H](NC(=O)CCCCCCCCCCCCCCCCC(=O)O)C(=O)O)C(=O)O)C(=O)O)CSSC[C@@H](C(=O)O)NC(=O)CNC(=O)[C@H](CC(C)C)NC(=O)CNC(=O)[C@H](CO)NC(=O)[C@H](CC(C)C)NC(=O)[C@H](CO)NC(=O)CNC1=O [compound 1382] ({C18 diacid-γGlu-γGlu-γGlu-AEEA-AEEA}-QEHPQAHKYKGAQKKGLSQGCFGLPLDRIGSLSGLGC-OH; disulfide 21-37) | 45 | 
CC[C@H](C)[C@@H]1NC(=O)[C@H](CCCNC(=N)N)NC(=O)[C@H](CC(=O)O)NC(=O)[C@H](CC(C)C)NC(=O)[C@@H]2CCCN2C(=O)[C@H](CC(C)C)NC(=O)CNC(=O)[C@H](Cc2ccccc2)NC(=O)[C@@H](NC(=O)CNC(=O)[C@H](CO)NC(=O)[C@H](CO)NC(=O)[C@H](CC(C)C)NC(=O)CNC(=O)[C@H](CCCCN)NC(=O)[C@H](CCCCN)NC(=O)[C@H](CCC(N)=O)NC(=O)[C@H](C)NC(=O)CNC(=O)[C@H](CCCCN)NC(=O)[C@H](Cc2ccc(O)cc2)NC(=O)[C@H](CCCCN)NC(=O)[C@H](CCCNC(=N)N)NC(=O)[C@H](C)NC(=O)[C@H](CCC(N)=O)NC(=O)[C@@H]2CCCN2C(=O)[C@H](Cc2c[nH]cn2)NC(=O)[C@H](CCC(=O)O)NC(=O)[C@H](CCC(N)=O)NC(=O)CC[C@H](NC(=O)CC[C@H](NC(=O)CC[C@H](NC(=O)CC[C@H](NC(=O)CCCCCCCCCCCCCCCCC(=O)O)C(=O)O)C(=O)O)C(=O)O)C(=O)O)CSSC[C@@H](C(=O)O)NC(=O)CNC(=O)[C@H](CC(C)C)NC(=O)CNC(=O)[C@H](CO)NC(=O)[C@H](CC(C)C)NC(=O)[C@H](CO)NC(=O)CNC1=O [compound 1389] ({C18 diacid-γGlu-γGlu-γGlu-γGlu}-QEHPQARKYKGAQKKGLSSGCFGLPLDRIGSLSGLGC-OH; disulfide 21-37) |  | 45
CC[C@H](C)[C@@H]1NC(=O)[C@H](CCCNC(=N)N)NC(=O)[C@H](CC(=O)O)NC(=O)[C@H](CC(C)C)NC(=O)[C@@H]2CCCN2C(=O)[C@H](CC(C)C)NC(=O)CNC(=O)[C@H](Cc2ccccc2)NC(=O)[C@@H](NC(=O)CNC(=O)[C@H](CO)NC(=O)[C@H](CO)NC(=O)[C@H](CC(C)C)NC(=O)CNC(=O)[C@H](CCCCN)NC(=O)[C@H](CCCCN)NC(=O)[C@H](CCC(N)=O)NC(=O)[C@H](C)NC(=O)CNC(=O)[C@H](CCC(=O)O)NC(=O)[C@H](Cc2ccc(O)cc2)NC(=O)COCCOCCNC(=O)COCCOCCNC(=O)COCCOCCNC(=O)COCCOCCNC(=O)CC[C@H](NC(=O)CCCCCCCCCCCCCCCCC(=O)O)C(=O)O)CSSC[C@@H](C(=O)O)NC(=O)CNC(=O)[C@H](CC(C)C)NC(=O)CNC(=O)[C@H](CO)NC(=O)[C@H](CC(C)C)NC(=O)[C@H](CO)NC(=O)CNC1=O [compound 1392] ({C18 diacid-γGlu-AEEA-AEEA-AEEA-AEEA}-YEGAQKKGLSSGCFGLPLDRIGSLSGLGC-OH; disulfide 13-29) | 45 | 
